Source: ChEMBL document CHEMBL3885881, “DrugMatrix”

Species on record: Rattus norvegicus
Test: DrugMatrix - Regimen: Daily Repeat
Format: toxicity, organism-based, Sprague-Dawley
Design: regimen Daily Repeat, gender Male, age 6-8 weeks
Conditions: in vivo, po, route oral GAVAGE, […]; for ABSOLUTE BASOPHIL / ABSOLUTE EOSINOPHIL / ABSOLUTE LYMPHOCYTE / ABSOLUTE MONOCYTE / ABSOLUTE SEGMENTED NEUTROPHIL / BASOPHIL / EOSINOPHIL / ERYTHROCYTE COUNT / HEMATOCRIT / HEMOGLOBIN / LEUKOCYTE COUNT / LYMPHOCYTE / MEAN CORPUSCULAR HEMOGLOBIN / MEAN CORPUSCULAR HEMOGLOBIN CONCENTRATION / MEAN CORPUSCULAR VOLUME / MONOCYTE / NEUTROPHIL / NUCLEATED RED BLOOD CELLS / PLATELET COUNT: tissue Blood; for ALANINE AMINOTRANSFERASE / ALBUMIN / ALKALINE PHOSPHATASE / ASPARTATE AMINOTRANSFERASE / BLOOD UREA NITROGEN / CARBON DIOXIDE / CHLORIDE / CHOLESTEROL / CREATINE PHOSPHOKINASE / CREATININE / GLUCOSE / LACTATE DEHYDROGENASE / LIPASE / PHOSPHORUS / POTASSIUM / SODIUM / TOTAL BILIRUBIN / TOTAL PROTEIN / URIC ACID: tissue Plasma
[1] = 0 mg/kg, 72 h, dose level Control, time 3 day
[2] = 0 mg/kg, 120 h, dose level Control, time 5 day
[3] = 13 mg/kg, 72 h, dose level Low, time 3 day

CN(C)c1nc(N(C)C)nc(N(C)C)n1 [ALTRETAMINE] was tested, and the “ABSOLUTE BASOPHIL” value [1] was 0 CELLS/uL, the “ABSOLUTE EOSINOPHIL” value [1] was 70.67 CELLS/uL and the “ABSOLUTE LYMPHOCYTE” value [1] was 12761.5 CELLS/uL. The “ABSOLUTE MONOCYTE” value [1] was 214.17 CELLS/uL, the “ABSOLUTE SEGMENTED NEUTROPHIL” value [1] was 987 CELLS/uL and the BASOPHIL [1] was 0%. The EOSINOPHIL [1] was 0.5%, the “ERYTHROCYTE COUNT” value [1] was 5.61 x10E6/uL and the HEMATOCRIT [1] was 35.22%. For the same compound, the HEMOGLOBIN [1] was 13.57 G/DL, the “LEUKOCYTE COUNT” value [1] was 14.03 x10E3/uL and the LYMPHOCYTE [1] was 91%. The “MEAN CORPUSCULAR HEMOGLOBIN” value [1] was 24.25 pg, the “MEAN CORPUSCULAR HEMOGLOBIN CONCENTRATION” value [1] was 38.52 G/DL and the “MEAN CORPUSCULAR VOLUME” value [1] was 62.9 fL. The MONOCYTE [1] was 1.5%, the NEUTROPHIL [1] was 7% and the “NUCLEATED RED BLOOD CELLS” value [1] was 0 /100WBC. The “PLATELET COUNT” value [1] was 997.5 x10E3/uL, the “ALANINE AMINOTRANSFERASE” value [1] was 66.5 u/L and the ALBUMIN [1] was 3.98 G/DL. The “ALKALINE PHOSPHATASE” value [1] was 350 u/L, the “ASPARTATE AMINOTRANSFERASE” value [1] was 83.83 u/L and the “BLOOD UREA NITROGEN” value [1] was 12.33 mg/dL. The “CARBON DIOXIDE” value [1] was 30.33 mmol/L, the CHLORIDE [1] was 100 MEQ/L and the CHOLESTEROL [1] was 75 mg/dL. For the same compound, the “CREATINE PHOSPHOKINASE” value [1] was 200 u/L, the CREATININE [1] was 0.17 mg/dL and the GLUCOSE [1] was 170 mg/dL. The “LACTATE DEHYDROGENASE” value [1] was 89.33 u/L, the LIPASE [1] was 10.33 u/L and the PHOSPHORUS [1] was 10.88 mg/dL. For the same compound, the POTASSIUM [1] was 6.13 MEQ/L, the SODIUM [1] was 140.53 MEQ/L and the “TOTAL BILIRUBIN” value [1] was 0.2 mg/dL. The “TOTAL PROTEIN” value [1] was 5.67 G/DL, the “URIC ACID” value [1] was 1.6 mg/dL and the “ABSOLUTE BASOPHIL” value [2] was 0 CELLS/uL. The “ABSOLUTE EOSINOPHIL” value [2] was 0 CELLS/uL, the “ABSOLUTE LYMPHOCYTE” value [2] was 9526.67 CELLS/uL and the “ABSOLUTE MONOCYTE” value [2] was 134.17 CELLS/uL. The “ABSOLUTE SEGMENTED NEUTROPHIL” value [2] was 922.5 CELLS/uL, the BASOPHIL [2] was 0% and the EOSINOPHIL [2] was 0%. For the same compound, the “ERYTHROCYTE COUNT” value [2] was 5.58 x10E6/uL, the HEMATOCRIT [2] was 34.78% and the HEMOGLOBIN [2] was 13.5 G/DL. The “LEUKOCYTE COUNT” value [2] was 10.58 x10E3/uL, the LYMPHOCYTE [2] was 90.17% and the “MEAN CORPUSCULAR HEMOGLOBIN” value [2] was 24.27 pg. For the same compound, the “MEAN CORPUSCULAR HEMOGLOBIN CONCENTRATION” value [2] was 38.82 G/DL, the “MEAN CORPUSCULAR VOLUME” value [2] was 62.48 fL and the MONOCYTE [2] was 1.17%. For the same compound, the NEUTROPHIL [2] was 8.67%, the “NUCLEATED RED BLOOD CELLS” value [2] was 0.17 /100WBC and the “PLATELET COUNT” value [2] was 807.17 x10E3/uL. The “ALANINE AMINOTRANSFERASE” value [2] was 66.83 u/L, the ALBUMIN [2] was 3.73 G/DL and the “ALKALINE PHOSPHATASE” value [2] was 286.17 u/L. The “ASPARTATE AMINOTRANSFERASE” value [2] was 142.33 u/L, the “BLOOD UREA NITROGEN” value [2] was 14.67 mg/dL and the “CARBON DIOXIDE” value [2] was 25.5 mmol/L. The CHLORIDE [2] was 89.17 MEQ/L, the CHOLESTEROL [2] was 75.17 mg/dL and the “CREATINE PHOSPHOKINASE” value [2] was 310.67 u/L. For the same compound, the CREATININE [2] was 0.2 mg/dL, the GLUCOSE [2] was 153 mg/dL and the “LACTATE DEHYDROGENASE” value [2] was 1594 u/L. The LIPASE [2] was 14.83 u/L, the PHOSPHORUS [2] was 11.28 mg/dL and the POTASSIUM [2] was 8.46 MEQ/L. For the same compound, the SODIUM [2] was 126.88 MEQ/L, the “TOTAL BILIRUBIN” value [2] was 0.37 mg/dL and the “TOTAL PROTEIN” value [2] was 5.53 G/DL. For the same compound, the “URIC ACID” value [2] was 1.52 mg/dL, the “ABSOLUTE BASOPHIL” value [3] was 0 CELLS/uL and the “ABSOLUTE EOSINOPHIL” value [3] was 45.67 CELLS/uL. The “ABSOLUTE LYMPHOCYTE” value [3] was 11954 CELLS/uL, the “ABSOLUTE MONOCYTE” value [3] was 232.67 CELLS/uL and the “ABSOLUTE SEGMENTED NEUTROPHIL” value [3] was 1567.67 CELLS/uL. For the same compound, the BASOPHIL [3] was 0%, the EOSINOPHIL [3] was 0.33% and the “ERYTHROCYTE COUNT” value [3] was 5.86 x10E6/uL. The HEMATOCRIT [3] was 37.47%, the HEMOGLOBIN [3] was 14.6 G/DL and the “LEUKOCYTE COUNT” value [3] was 13.8 x10E3/uL. For the same compound, the LYMPHOCYTE [3] was 86.67%, the “MEAN CORPUSCULAR HEMOGLOBIN” value [3] was 24.97 pg and the “MEAN CORPUSCULAR HEMOGLOBIN CONCENTRATION” value [3] was 38.97 G/DL. For the same compound, the “MEAN CORPUSCULAR VOLUME” value [3] was 64 fL, the MONOCYTE [3] was 1.67% and the NEUTROPHIL [3] was 11.33%. The “NUCLEATED RED BLOOD CELLS” value [3] was 0 /100WBC, the “PLATELET COUNT” value [3] was 1022.33 x10E3/uL and the “ALANINE AMINOTRANSFERASE” value [3] was 99.33 u/L. The ALBUMIN [3] was 4.03 G/DL, the “ALKALINE PHOSPHATASE” value [3] was 392.33 u/L and the “ASPARTATE AMINOTRANSFERASE” value [3] was 89.67 u/L. The “BLOOD UREA NITROGEN” value [3] was 12.33 mg/dL, the “CARBON DIOXIDE” value [3] was 29 mmol/L and the CHLORIDE [3] was 99 MEQ/L. The CHOLESTEROL [3] was 87.33 mg/dL, the “CREATINE PHOSPHOKINASE” value [3] was 288 u/L and the CREATININE [3] was 0.18 mg/dL. The GLUCOSE [3] was 161 mg/dL, the “LACTATE DEHYDROGENASE” value [3] was 193 u/L and the LIPASE [3] was 10.67 u/L. The PHOSPHORUS [3] was 11.53 mg/dL, the POTASSIUM [3] was 6.64 MEQ/L and the SODIUM [3] was 140.43 MEQ/L. For the same compound, the “TOTAL BILIRUBIN” value [3] was 0.23 mg/dL, the “TOTAL PROTEIN” value [3] was 5.83 G/DL and the “URIC ACID” value [3] was 1.97 mg/dL.
